According to US20240132513A1, “BENZAZEPINE DERIVATIVES, COMPOSITIONS, AND METHODS FOR TREATING COGNITIVE IMPAIRMENT” (AGENEBIO, INC., priority 2022, published 2024):
Read-outs that look alike come from different tables or passages of the source.

Experiments:
GABAA R (α5β2γ2) = biological target: T1, GABAA R (α5β2γ2) (Homo sapiens, UniProt P18507+P31644); experiment: Positive allosteric modulator activity: potentiation of EC20 GABA current in oocytes; assay type: cell-based
T1 construct: expressed in transfected cells
Experimental: On day 1, 1 ng/32 nL of GABAA α5β2γ2 cDNA was injected into one oocyte. Test starts on day 2. The cDNA injected to the oocytes was a mix of alpha, beta and gamma, their ratio is 1:1:10 (by weight) and the total weight of the mixed 3 subunits to be injected in one oocyte was 1 ng in 32 nl volume. The injected oocytes can also be tested on day 3. In such case, the cDNA amount injected to the oocytes should be reduced by 20%.
Compounds of the present disclosure were tested using the following procedures.
8 oocytes were placed in 8 chambers of OpusXpress and superfused with Modified Barth's Saline (MBS) at 3 mL/min. Glass electrodes back-filled with 3M KCl (0.5-3 megaohms) were used. Membrane potential of oocytes was voltage-clamped at −60 mV. • 2).
Control Test (Diazepam or Methyl 3,5-Diphenylpyridazine-4-Carboxylate) • 1). New oocytes was used to run new test. • 2). […] Oocytes were washed with MBS for 5-10 min. • 4). […] Itest was divided by IGABA to obtain potentiation (%).
Test Compounds at Multiple Doses • 1). Repeat the above steps 1), 2) and 3) in the control test. • 2). […] Divide Itest by IGABA to obtain potentiation (%). • 3). Discard all tested oocytes, new oocytes were used and the above steps 1) and 2) were repeated to test second concentration of the same compound. Each oocyte was used for only one concentration test for a single test compound. The steps were repeated for other test compounds.

α5β3γ2 GABAA R = α5β3γ2 GABAA R (Homo sapiens, UniProt P18507+P31644); experiment: Binding activity on GABAA R: inhibition of [3H]Ro15-1788 binding, α5 containing receptor
How it was run: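 Membranes from dexamethasone-induced (0.5 μM, 1 day) Ltk cells stably expressing α5β3γ2 receptors, 0.2 mg/ml protein, incubated with [3H]Ro15-1788 for 1 h at 4 °C in 50 mM KH2PO4/1 mM EDTA/0.2 M KCl, pH 7.4. Nonspecific binding with 10 μM diazepam; bound ligand by GF/B filtration and scintillation counting, triplicates.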

[1] = read-out: GABA α5 Functional Data: potentiation, @ 100 nM, EC20 GABA, ranges of the column heads
[2] = read-out: GABA α5 Functional Data: potentiation
[3] = ranges of the column heads, [3H]Ro15-1788, Ltk cell membranes

α5β3γ2 GABAA R, sequence (P31644 32-462): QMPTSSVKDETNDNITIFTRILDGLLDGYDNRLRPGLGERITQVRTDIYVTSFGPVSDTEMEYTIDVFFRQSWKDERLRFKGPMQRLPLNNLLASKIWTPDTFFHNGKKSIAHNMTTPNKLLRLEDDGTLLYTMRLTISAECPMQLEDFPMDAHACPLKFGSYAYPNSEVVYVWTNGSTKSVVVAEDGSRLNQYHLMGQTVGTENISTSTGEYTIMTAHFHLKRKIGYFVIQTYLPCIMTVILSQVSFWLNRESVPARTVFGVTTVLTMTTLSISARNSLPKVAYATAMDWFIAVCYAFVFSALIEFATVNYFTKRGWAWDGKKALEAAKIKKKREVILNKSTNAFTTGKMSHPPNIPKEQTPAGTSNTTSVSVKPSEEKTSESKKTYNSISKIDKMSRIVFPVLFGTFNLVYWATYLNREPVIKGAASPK
α5β3γ2 GABAA R, sequence (P28472 26-473 partner): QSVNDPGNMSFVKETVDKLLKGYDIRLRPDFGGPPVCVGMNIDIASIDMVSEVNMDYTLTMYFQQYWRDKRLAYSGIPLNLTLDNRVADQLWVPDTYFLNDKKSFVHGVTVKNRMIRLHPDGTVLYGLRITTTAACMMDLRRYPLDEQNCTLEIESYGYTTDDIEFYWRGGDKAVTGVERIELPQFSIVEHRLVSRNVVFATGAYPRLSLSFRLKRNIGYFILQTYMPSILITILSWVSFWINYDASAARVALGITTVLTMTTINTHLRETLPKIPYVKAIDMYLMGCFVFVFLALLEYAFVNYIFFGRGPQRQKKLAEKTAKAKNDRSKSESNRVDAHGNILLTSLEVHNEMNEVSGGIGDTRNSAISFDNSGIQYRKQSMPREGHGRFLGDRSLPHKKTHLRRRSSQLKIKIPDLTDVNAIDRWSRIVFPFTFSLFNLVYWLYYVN
α5β3γ2 GABAA R, sequence (P18507 40-475): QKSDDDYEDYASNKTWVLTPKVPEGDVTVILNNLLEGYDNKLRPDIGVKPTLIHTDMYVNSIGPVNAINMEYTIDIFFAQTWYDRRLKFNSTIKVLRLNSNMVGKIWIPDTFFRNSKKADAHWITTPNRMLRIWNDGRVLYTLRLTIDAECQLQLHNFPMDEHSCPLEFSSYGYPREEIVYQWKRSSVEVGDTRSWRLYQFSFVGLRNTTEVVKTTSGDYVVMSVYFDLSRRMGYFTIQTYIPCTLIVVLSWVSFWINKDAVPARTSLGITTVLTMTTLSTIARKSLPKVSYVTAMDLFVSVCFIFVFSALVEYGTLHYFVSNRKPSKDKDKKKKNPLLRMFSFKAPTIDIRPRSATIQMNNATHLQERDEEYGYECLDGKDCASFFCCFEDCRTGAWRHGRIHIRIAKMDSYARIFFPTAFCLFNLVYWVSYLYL
T1 sequence (P31644 32-462): as the sequence (P31644 32-462) above
T1 sequence (P47870 25-512 partner limits assumed): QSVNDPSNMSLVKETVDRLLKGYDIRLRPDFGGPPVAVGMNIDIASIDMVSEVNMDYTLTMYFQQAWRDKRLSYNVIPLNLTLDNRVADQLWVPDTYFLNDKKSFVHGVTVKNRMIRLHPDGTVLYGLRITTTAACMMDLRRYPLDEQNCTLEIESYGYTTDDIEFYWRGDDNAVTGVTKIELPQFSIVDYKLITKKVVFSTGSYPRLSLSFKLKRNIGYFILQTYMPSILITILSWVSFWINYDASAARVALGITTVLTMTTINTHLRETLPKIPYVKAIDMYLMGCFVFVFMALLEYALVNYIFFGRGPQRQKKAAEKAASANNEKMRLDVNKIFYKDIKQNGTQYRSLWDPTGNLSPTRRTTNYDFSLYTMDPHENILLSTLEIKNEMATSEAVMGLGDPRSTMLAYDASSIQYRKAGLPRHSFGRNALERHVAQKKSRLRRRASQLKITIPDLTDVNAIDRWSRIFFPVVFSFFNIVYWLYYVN
T1 sequence (P18507 40-475): as the sequence (P18507 40-475) above

| SMILES | activation at 0.1 µM (GABAA R (α5β2γ2); [1]) | Ki (α5β3γ2 GABAA R) | activation at 0.1 µM (GABAA R (α5β2γ2); [2]) | Ki (α5β3γ2 GABAA R; [3]) |
| --- | --- | --- | --- | --- |
| COc1ccc2c(c1)-c1nn(C)cc1Cc1c(-c3nc(C(C)(C)C)no3)ncn1-2 [Compound 118] | 20 to 50% | < 100 nM |  |  |
| COc1ccc2c(c1)-c1nn(C)cc1Cc1c(-c3nc(C(F)(F)F)no3)ncn1-2 [Compound 119] | 5 to 20% | < 100 nM |  |  |
| COc1ccc2c(c1)-c1nn(C)cc1Cc1c(-c3nc(C4CC4)no3)ncn1-2 [Compound 120] |  |  | 20 to 50% | < 100 nM |
| Cc1noc(-c2ncn3c2Cc2cn(C)nc2-c2cc(Cl)ccc2-3)n1 [Compound 121] | 20 to 50% | < 100 nM |  |  |
| Cn1cc2c(n1)-c1cc(Cl)ccc1-n1cnc(-c3nc(C(F)(F)F)no3)c1C2 [Compound 122] | 5 to 20% | < 100 nM |  |  |
| Clc1ccc2c(c1)-c1[nH]ncc1Cc1c(-c3nc(C4CCCCC4)no3)ncn1-2 [Compound 123] | 5 to 20% | < 100 nM |  |  |
| COc1ccc2c(c1)-c1nn(Cc3ccccn3)cc1Cc1c(-c3nc(C(C)C)no3)ncn1-2 [Compound 124] | 20 to 50% | < 100 nM |  |  |
| COc1ccc2c(c1)-c1nn(Cc3cccnc3)cc1Cc1c(-c3nc(C(C)C)no3)ncn1-2 [Compound 125] | 20 to 50% | < 100 nM |  |  |
| COc1ccc2c(c1)-c1nn(C)cc1Cc1c(-c3nc(C4CCOC4)no3)ncn1-2 (stereo not shown) [Compound 126] | 20 to 50% | < 100 nM |  |  |
| Cn1cc2c(n1)-c1cc(Cl)ccc1-n1cnc(-c3nc(C4CC4)no3)c1C2 [Compound 127] | 20 to 50% | < 100 nM |  |  |
| COCCn1cc2c(n1)-c1cc(Cl)ccc1-n1cnc(-c3nc(C4CC4)no3)c1C2 [Compound 128] | 5 to 20% | < 100 nM |  |  |
| Clc1ccc2c(c1)-c1nn(CC3CC3)cc1Cc1c(-c3nc(C4CC4)no3)ncn1-2 [Compound 129] | 20 to 50% | < 100 nM |  |  |
| COc1ccc2c(c1)-c1nn(C)cc1Cc1c(-c3noc(C(F)(F)F)n3)ncn1-2 [Compound 130] | > 50% | < 100 nM |  |  |
| COc1ccc2c(c1)-c1nn(C)cc1Cc1c(-c3noc(C)n3)ncn1-2 [Compound 131] | 5 to 20% | < 100 nM |  |  |
| COc1ccc2c(c1)-c1nn(C)cc1Cc1c(-c3noc(C4CC4)n3)ncn1-2 [Compound 132] |  |  | 20 to 50% | < 100 nM |
| CCn1cc2c(n1)-c1cc(Cl)ccc1-n1cnc(-c3nc(C4CC4)no3)c1C2 [Compound 133] |  |  | 20 to 50% | < 100 nM |
| Cn1cc2c(n1)-c1cc(Cl)ccc1-n1cnc(-c3nc(C4CCOC4)no3)c1C2 (stereo not shown) [Compound 134] | 20 to 50% | < 100 nM |  |  |
| Clc1ccc2c(c1)-c1nn(Cc3ccccn3)cc1Cc1c(-c3nc(C4CC4)no3)ncn1-2 [Compound 135] | 5 to 20% | < 100 nM |  |  |
| COc1ccc2c(c1)-c1nn(C)cc1Cc1c(-c3noc(C4CCOC4)n3)ncn1-2 (stereo not shown) [Compound 136] | 20 to 50% | < 100 nM |  |  |
| CCOCc1nc(-c2ncn3c2Cc2cn(C)nc2-c2cc(OC)ccc2-3)no1 [Compound 137] | 20 to 50% | < 100 nM |  |  |
| CC(C)c1noc(-c2ncn3c2Cc2cn(C(C)C)nc2-c2cc(Cl)ccc2-3)n1 [Compound 138] | 20 to 50% | < 100 nM |  |  |
| CCn1ncc2c1-c1cc(Cl)ccc1-n1cnc(-c3nc(C4CC4)no3)c1C2 [Compound 139] |  |  | 20 to 50% | < 100 nM |
| Cc1nc(-c2ncn3c2Cc2cn(C)nc2-c2cc(Cl)ccc2-3)no1 [Compound 140] | 5 to 20% | < 100 nM |  |  |
| CC(C)c1nc(-c2ncn3c2Cc2cn(C)nc2-c2cc(Cl)ccc2-3)no1 [Compound 141] | 20 to 50% | < 100 nM |  |  |

| SMILES | activation at 0.1 µM (GABAA R (α5β2γ2); [1]) | Ki (α5β3γ2 GABAA R) | activation at 0.1 µM (GABAA R (α5β2γ2); [2]) | Ki (α5β3γ2 GABAA R; [3]) |
| --- | --- | --- | --- | --- |
| Cn1cc2c(n1)-c1cc(Cl)ccc1-n1cnc(-c3noc(C4CC4)n3)c1C2 [Compound 142] | 20 to 50% | < 100 nM |  |  |
| Cn1cc2c(n1)-c1cc(Cl)ccc1-n1cnc(-c3noc(C(C)(C)C)n3)c1C2 [Compound 143] | 5 to 20% | < 100 nM |  |  |
| Cn1cc2c(n1)-c1cc(Cl)ccc1-n1cnc(-c3noc(C(F)(F)F)n3)c1C2 [Compound 144] | 20 to 50% | < 100 nM |  |  |
| Cn1cc2c(n1)-c1cc(Cl)ccc1-n1cnc(-c3noc(C4CCOC4)n3)c1C2 (stereo not shown) [Compound 145] | 5 to 20% | < 100 nM |  |  |
| COc1ccc2c(c1)-c1nn(C)cc1Cc1c(-c3noc(C(C)(C)C)n3)ncn1-2 [Compound 146] | 5 to 20% | < 100 nM |  |  |
| Cc1nc(-c2ncn3c2Cc2cn(C(C)C)nc2-c2cc(Cl)ccc2-3)no1 [Compound 147] |  |  | 5 to 20% | < 100 nM |
| CC(C)n1cc2c(n1)-c1cc(Cl)ccc1-n1cnc(-c3noc(C(F)(F)F)n3)c1C2 [Compound 148] |  |  | 5 to 20% | < 100 nM |
| CC(C)n1cc2c(n1)-c1cc(Cl)ccc1-n1cnc(-c3noc(C4CC4)n3)c1C2 [Compound 149] | 20 to 50% | < 100 nM |  |  |
| CC(C)c1nc(-c2ncn3c2Cc2cn(C(C)C)nc2-c2cc(Cl)ccc2-3)no1 [Compound 150] | 20 to 50% | < 100 nM |  |  |
| CCn1cc2c(n1)-c1cc(OC)ccc1-n1cnc(-c3nc(C(C)C)no3)c1C2 [Compound 151] | 5 to 20% | < 100 nM |  |  |
| COCc1nc(-c2ncn3c2Cc2cn(C)nc2-c2cc(OC)ccc2-3)no1 [Compound 153] |  |  | 20 to 50% | < 100 nM |
| CC(C)n1cc2c(n1)-c1cc(Cl)ccc1-n1cnc(-c3nc(C4CC4)no3)c1C2 [Compound 154] | 5 to 20% | < 100 nM |  |  |
| COCc1nc(-c2ncn3c2Cc2cn(C)nc2-c2cc(Cl)ccc2-3)no1 [Compound 155] | 20 to 50% | < 100 nM |  |  |
| CCn1cc2c(n1)-c1cc(OC)ccc1-n1cnc(-c3noc(C(C)C)n3)c1C2 [Compound 156] | 20 to 50% | < 100 nM |  |  |
| CCn1cc2c(n1)-c1cc(OC)ccc1-n1cnc(-c3noc(C4CC4)n3)c1C2 [Compound 157] | 20 to 50% | < 100 nM |  |  |
| CCn1cc2c(n1)-c1cc(OC)ccc1-n1cnc(-c3noc(C(F)(F)F)n3)c1C2 [Compound 158] |  |  | 5 to 20% | < 100 nM |
| CCn1cc2c(n1)-c1cc(Cl)ccc1-n1cnc(-c3nc(C)no3)c1C2 [Compound 159] | 20 to 50% | < 100 nM |  |  |
| Cc1noc(-c2ncn3c2Cc2cn(C(C)C)nc2-c2cc(Cl)ccc2-3)n1 [Compound 160] | 20 to 50% | < 100 nM |  |  |
| Cc1noc(-c2ncn3c2Cc2cn(CC4CCOC4)nc2-c2cc(Cl)ccc2-3)n1 (stereo not shown) [Compound 161] | 20 to 50% | < 100 nM |  |  |
| Clc1ccc2c(c1)-c1c(cnn1CC1CC1)Cc1c(-c3nc(C4CC4)no3)ncn1-2 [Compound 162] | 5 to 20% | < 100 nM |  |  |
| Cn1cc2c(n1)-c1cc(Cl)ccc1-n1cnc(-c3cnn(Cc4ccccc4)c3)c1C2 [Compound 163] | 5 to 20% | < 100 nM |  |  |
| CC(C)n1cc2c(n1)-c1cc(Cl)ccc1-n1cnc(-c3ncco3)c1C2 [Compound 167] | 5 to 20% | < 100 nM |  |  |
| COc1ccc2c(c1)-c1nn(CC3CCOC3)cc1Cc1c(-c3nc(C4CC4)no3)ncn1-2 (stereo not shown) [Compound 168] | 20 to 50% | < 100 nM |  |  |
